Results on eight compounds are retold here after patent US7498438B2, “Fused ring NK1 antagonists” (Schering Corporation, priority 2004, dated 2009).

Sequence of NK1 receptor (P25103 whole entry, species assumed): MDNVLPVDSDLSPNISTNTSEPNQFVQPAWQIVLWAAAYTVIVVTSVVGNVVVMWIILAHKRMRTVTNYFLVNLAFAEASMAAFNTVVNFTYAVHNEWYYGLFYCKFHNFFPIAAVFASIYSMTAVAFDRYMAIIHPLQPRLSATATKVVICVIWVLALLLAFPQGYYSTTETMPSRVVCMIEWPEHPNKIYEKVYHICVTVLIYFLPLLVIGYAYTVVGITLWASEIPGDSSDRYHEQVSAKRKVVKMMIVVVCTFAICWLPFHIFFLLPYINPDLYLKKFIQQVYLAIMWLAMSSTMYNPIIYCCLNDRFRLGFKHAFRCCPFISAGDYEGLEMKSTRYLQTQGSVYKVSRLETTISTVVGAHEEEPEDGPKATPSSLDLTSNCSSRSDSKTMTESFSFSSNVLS

In the experiment the target is NK1 receptor (Homo sapiens, UniProt P25103). Briefly: NK1 receptor binding: inhibition of Substance P binding, Ki by the Chang-Prusoff equation. The text has this:
The in vitro and in vivo NK1, NK2 and NK3 activities of the compounds of Formula 1 can be determined by various procedures known in the art, such as a test for their ability to inhibit the activity of the NK1 agonist Substance P. The percent inhibition of neurokinin agonist activity is the difference between the percent of maximum specific binding (“MSB”) and 100%. The percent of MSB is defined by the following equation, wherein “dpm” represents “disintegrations per minute”:
[formula] The concentration at which the compound produces 50% inhibition of binding is then used to determine an inhibition constant (“Ki”) using the Chang-Prusoff equation.
The activities (potencies) for the compounds of the invention are determined by measuring their Ki values. […] Even more preferred are compounds having average Ki values of from 0.01 nM to about 10 nM for the NK1 receptor. Especially preferred compounds have NK1 average Ki values of from 0.01 nM to about 3 nM. Even more especially preferred compounds have NK1 average Ki values of from 0.01 nM to about 0.3 nM.
Usually Ki stands for the dissociation constant of the complex between target and ligand, obtained from inhibition or displacement. The compound `C[C@@H](OC[C@@]1(c2ccccc2)CCC2OC(=O)NC2N1)c1cc(C(F)(F)F)cc(C(F)(F)F)c1` (single isomer, unassigned) [Compound 4a] yielded an inhibitory constant (Ki) of 0.62 nM.

`C[C@@H](OC[C@@]1(c2ccccc2)CC[C@@H]2NC(=O)NCC2N1)c1cc(C(F)(F)F)cc(C(F)(F)F)c1` (some centres unmarked) [Compound 8] registered an inhibition constant Ki of 0.36 nM.

`C[C@@H](OC[C@@]1(c2ccccc2)CC[C@@H]2NC(=O)CC2N1)c1cc(C(F)(F)F)cc(C(F)(F)F)c1` (some centres unmarked) [Compound 5a] gave a Ki of 0.23 nM.

In turn, `C[C@@H](OC[C@@]1(c2ccccc2)CCC2OC(=O)NC2N1)c1cc(C(F)(F)F)cc(C(F)(F)F)c1` (single isomer, unassigned) [Compound 4b] registered a Ki of 0.32 nM.

Consider `C[C@@H](OC[C@@]1(c2ccccc2)CC[C@@H]2NC(=O)OCCC2N1)c1cc(C(F)(F)F)cc(C(F)(F)F)c1` (some centres unmarked) [Compound 6a], for which the Ki was found to be 0.14 nM.

For `C[C@@H](OC[C@@]1(c2ccccc2)C[C@H]2OC(=O)NC2CN1)c1cc(C(F)(F)F)cc(C(F)(F)F)c1` (some centres unmarked) [Compound 9a], the Ki is 0.28 nM.

Compound `C[C@@H](OC[C@@]1(c2ccccc2)CC[C@@H]2NC(=O)CCC2N1)c1cc(C(F)(F)F)cc(C(F)(F)F)c1` (some centres unmarked) [Compound 7] registered an inhibition constant Ki of 0.3 nM.

In turn, `C[C@@H](OC[C@@]1(c2ccccc2)C[C@H]2NC(=O)NC2CN1)c1cc(C(F)(F)F)cc(C(F)(F)F)c1` (some centres unmarked) [Compound 1a] showed an inhibition constant (Ki) of 0.23 nM.
